Experimental findings from patent US4434101A, “Inhibitors of SRS-synthesis” (Hoffmann-La Roche Inc., priority 1981, dated 1984) are described below.

This assay deals with SRS-A synthesis in rat peritoneal cells. Description: Inhibition of the In Vitro Synthesis of SRS-A in Rat Peritoneal Cells. In kind it is cell-based, rat (male Sprague-Dawley). The settings on record: for inhibition at 10 µM: mean percent inhibition of ionophore A23187-induced SRS-A synthesis, 10 min preincubation at 37° C., p<0.001, SRS-A quantitated by guinea pig ileum bioassay, read-out: % Inhibition at 10μ M; for IC50: from plot of mean percent inhibition versus drug concentration, ionophore A23187-induced SRS-A synthesis. From the text: Inhibition of the In Vitro Synthesis of SRS-A in Rat Peritoneal Cells
To study the effect of drugs on SRS-A synthesis in rat peritoneal cells, these cells (including mast cells, monocytes, eosinophils and neutrophils)were isolated from male Sprague-Dawley rats (Charles River Laboratories) weighing 180-220 g by the lavage procedure described by Herzig, D. G. and Dusner, E. J. Journal of Pharmacology and Experimental Therapeutics, 194, 457-460 (1975) with the exception that Hanks balanced salt solution used in these experiments was adjusted to pH 6.9 with 5% (V/V) of 0.1 M aqueous phosphate buffer and contained 50 mg/ml sodium heparin. After removal from the peritoneal cavity of rats, the cells were subsequently isolated by centrifugation at 400×gravity for 10 minutes at 4° C. and resuspended to a concentration of about 2,000,000 cells per ml in Hanks buffer.
Samples for evaluation were prepared by adding various concentrations of test drugs to 2 ml aliquots of the resuspended cells in Hanks buffer. The 2 ml samples used for control contained 2 ml aliquots of resuspended cells in Hanks buffer without drugs. All of the above samples (2 ml final volume) were preincubated at 37° C. for 10 minutes in the presence of varying concentrations of test drug prior to challenge with […] ionophore A23187. This ionophore is disclosed in Burka and Flower, Br. J. Pharmacology 65: 35-41 (1979). Antibiotic A23187 was used as a probe for the study of calcium and function in biological systems. After ionophore challenge, SRS-A was synthesized in the samples by the cells for 10 minutes (at 37° C.) after which this synthesis was terminated by placing the samples in a boiling water bath for 10 minutes followed by centrifugation at 2,000×g (10 minutes) at 4° C. to remove coagulated protein and cellular debris. The SRS-A present in the resulting supernatants was quantitated by a bioassay using a guinea pig ileum as described in Orange, and Austen, Adv. Immunol, 10: 105-144 (1969). For this bioassay, a 1.5 cm segment of ileum was removed from animals weighing 300 to 400 g and resuspended in an organ bath containing 10 ml of Tyrodes solution with 10^-6 M atropine sulfate and 10^-6 M pyrilamine maleate. The bath was maintained at 37° C. and aereated with a mixture of 95% O2 and 5% CO2. The concentration of SRS-A in the experimental samples was determined by a comparison of isotonic contraction responses elicited by the samples with those obtained with varying amounts of an SRS-A standard solution prepared from chopped guinea pig lung as disclosed in Hitchcock, M. J. Pharmacol. Exp. Ther. 207: 630-640 (1978) and quantitated by the procedures of Orange, R. R. and Austen, K. F. Adv. Immunol. 10: 105-144 (1969) against histamine (1 unit of SRS-A being that amount which gives a contractie response similar to that of […] of histamine). In the absence of drug, the ionophore A23187-induced SRS-A synthesis varied between 40 to 50 units of SRS-A per 10^6 cells. In the presence of increasing concentrations of test drug, there was a concentration-related decrease in SRS-A synthesis.
The mean percent inhibition [formula] at each concentration of the various test drugs was calculated. The concentration of test drug which inhibits the synthesis of SRS-A by 50% (IC50) was determined for each test drug from a plot of the mean percent inhibition versus drug concentration. The difference of units of SRS-A in the test sample used in the fraction given above was obtained by subtracting the units of SRS-A in the control from the actual measurement of the units of SRS-A in the sample.

Some results are limits rather than exact numbers.

`CCCCCCCCCCC/C=C\C(C)(C)/C=C\CCCC(=O)O` [(Z,Z)-7,7-dimethyl-5,8-eicosadienoic acid]: the inhibition at 10 µM came out at 100% and the IC50 is less than 10 µM.
As for `CCCCCCCC/C=C\C/C=C\C(C)(C)/C=C\CCCC(=O)O` [(all Z)-7,7-dimethyl-5,8,11-eicosatrienoic acid], the inhibition at 10 µM stood at 100% and the IC50 is less than 10 µM.
For `CCCCC/C=C\C/C=C\C/C=C\C(C)(C)/C=C\CCCC(=O)O` [(all-Z)-7,7-dimethyleicosa-5,8,11,14-tetraenoic acid], the inhibition at 10 µM is 100% and the half-inhibitory concentration (IC50) was in the range of 1 to 3 µM.
